Test results reported in the supplement of paper PMC10307832.

How the values were obtained:
Experiment in all cases: relative viability (nuclei count vs DMSO), 5 days (fraction); higher = more cells survive
LCLC-103H = test system: LCLC-103H
How it was run: (§1)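 For relative viability, nuclei counts in treated wells were divided by those in vehicle wells. Lung cancer cell lines had been pin-tool dosed in 1536-well plates the day after seeding and cultured for 5 days, then fixed and stained in one step (final 0.05% Triton X-100, 1% formaldehyde, 1 ug/ml Hoechst) and imaged at 4×. Doses were one drug alone or a fixed anchor-drug dose plus five library-drug doses (not always all listed) in √10 steps, and values are duplicate-plate medians.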

NCI-H358 = test system: NCI-H358
How it was run: as §1

NCI-H2405 = test system: NCI-H2405
How it was run: as §1

NCI-H1944 = test system: NCI-H1944
How it was run: as §1

NCI-H2085 = test system: NCI-H2085
How it was run: as §1

NCI-H2342 = test system: NCI-H2342
How it was run: as §1

UMC-11 = test system: UMC-11
How it was run: as §1

HCC-366 = test system: HCC-366
How it was run: as §1

NCI-H1792 = test system: NCI-H1792
How it was run: as §1

NCI-H1975 = test system: NCI-H1975
How it was run: as §1

NCI-H661 = test system: NCI-H661
How it was run: as §1

COR-L23 = test system: COR-L23
How it was run: as §1

NCI-H1395 = test system: NCI-H1395
How it was run: as §1

EPLC-272H = test system: EPLC-272H
How it was run: as §1

COR-L 105 = test system: COR-L 105
How it was run: as §1

HCC-15 = test system: HCC-15
How it was run: as §1

NCI-H2023 = test system: NCI-H2023
How it was run: as §1

HARA = test system: HARA
How it was run: as §1

HCC-78 = test system: HCC-78
How it was run: as §1

SK-MES-1 = test system: SK-MES-1
How it was run: as §1

HCC-44 = test system: HCC-44
How it was run: as §1

HCC-827 = test system: HCC-827
How it was run: as §1

SK-LU-1 = test system: SK-LU-1
How it was run: as §1

NCI-H1437 = test system: NCI-H1437
How it was run: as §1

NCI-H727 = test system: NCI-H727
How it was run: as §1

CCCCCCCCCCCC1=C(O)C(=O)C=C(O)C1=O [Embelin] + Nc1ncn([C@H]2C[C@H](O)[C@@H](CO)O2)c(=O)n1 [Decitabine] (partner 2 µM)
relative viability (LCLC-103H; first compound 0.08 µM): 0.754
relative viability (LCLC-103H; first compound 0.8 µM): 0.755
relative viability (LCLC-103H; first compound 2.53 µM): 0.737
relative viability (LCLC-103H; first compound 8 µM): 0.718
relative viability (NCI-H358; first compound 0.08 µM): 0.2
relative viability (NCI-H358; first compound 0.8 µM): 0.233
relative viability (NCI-H358; first compound 2.53 µM): 0.23
relative viability (NCI-H358; first compound 8 µM): 0.221
relative viability (NCI-H2405; first compound 0.08 µM): 0.764
relative viability (NCI-H2405; first compound 0.8 µM): 0.89
relative viability (NCI-H2405; first compound 2.53 µM): 0.738
relative viability (NCI-H2405; first compound 8 µM): 0.703
relative viability (NCI-H1944; first compound 0.08 µM): 0.436
relative viability (NCI-H1944; first compound 0.8 µM): 0.406
relative viability (NCI-H1944; first compound 2.53 µM): 0.5
relative viability (NCI-H1944; first compound 8 µM): 0.443
relative viability (NCI-H2085; first compound 0.08 µM): 0.538
relative viability (NCI-H2085; first compound 0.8 µM): 0.602
relative viability (NCI-H2085; first compound 2.53 µM): 0.531
relative viability (NCI-H2085; first compound 8 µM): 0.504
relative viability (NCI-H2342; first compound 0.08 µM): 0.71
relative viability (NCI-H2342; first compound 0.8 µM): 0.722
relative viability (NCI-H2342; first compound 2.53 µM): 0.842
relative viability (NCI-H2342; first compound 8 µM): 0.741
relative viability (UMC-11; first compound 0.08 µM): 0.616
relative viability (UMC-11; first compound 0.8 µM): 0.608
relative viability (UMC-11; first compound 2.53 µM): 0.631
relative viability (UMC-11; first compound 8 µM): 0.553
relative viability (HCC-366; first compound 0.08 µM): 0.341
relative viability (HCC-366; first compound 0.8 µM): 0.306
relative viability (HCC-366; first compound 2.53 µM): 0.372
relative viability (HCC-366; first compound 8 µM): 0.336
relative viability (NCI-H1792; first compound 0.08 µM): 0.603
relative viability (NCI-H1792; first compound 0.8 µM): 0.595
relative viability (NCI-H1792; first compound 2.53 µM): 0.615
relative viability (NCI-H1792; first compound 8 µM): 0.519
relative viability (NCI-H1975; first compound 0.08 µM): 0.377
relative viability (NCI-H1975; first compound 0.8 µM): 0.432
relative viability (NCI-H1975; first compound 2.53 µM): 0.37
relative viability (NCI-H1975; first compound 8 µM): 0.586
relative viability (NCI-H661; first compound 0.08 µM): 0.565
relative viability (NCI-H661; first compound 0.8 µM): 0.614
relative viability (NCI-H661; first compound 2.53 µM): 0.649
relative viability (NCI-H661; first compound 8 µM): 0.541
relative viability (COR-L23; first compound 0.08 µM): 0.454
relative viability (COR-L23; first compound 0.8 µM): 0.479
relative viability (COR-L23; first compound 2.53 µM): 0.433
relative viability (COR-L23; first compound 8 µM): 0.393
relative viability (NCI-H1395; first compound 0.08 µM): 0.712
relative viability (NCI-H1395; first compound 0.8 µM): 0.872
relative viability (NCI-H1395; first compound 2.53 µM): 0.699
relative viability (NCI-H1395; first compound 8 µM): 0.698
relative viability (EPLC-272H; first compound 0.08 µM): 0.363
relative viability (EPLC-272H; first compound 0.8 µM): 0.401
relative viability (EPLC-272H; first compound 2.53 µM): 0.355
relative viability (EPLC-272H; first compound 8 µM): 0.367
relative viability (COR-L 105; first compound 0.08 µM): 0.676
relative viability (COR-L 105; first compound 0.8 µM): 0.715
relative viability (COR-L 105; first compound 2.53 µM): 0.657
relative viability (COR-L 105; first compound 8 µM): 0.751
relative viability (HCC-15; first compound 0.08 µM): 0.619
relative viability (HCC-15; first compound 0.8 µM): 0.694
relative viability (HCC-15; first compound 2.53 µM): 0.697
relative viability (HCC-15; first compound 8 µM): 0.617
relative viability (NCI-H2023; first compound 0.08 µM): 0.249
relative viability (NCI-H2023; first compound 0.8 µM): 0.234
relative viability (NCI-H2023; first compound 2.53 µM): 0.247
relative viability (NCI-H2023; first compound 8 µM): 0.155
relative viability (HARA; first compound 0.08 µM): 0.51
relative viability (HARA; first compound 0.8 µM): 0.549
relative viability (HARA; first compound 2.53 µM): 0.587
relative viability (HARA; first compound 8 µM): 0.573
relative viability (HCC-78; first compound 0.08 µM): 0.739
relative viability (HCC-78; first compound 0.8 µM): 0.751
relative viability (HCC-78; first compound 2.53 µM): 0.71
relative viability (HCC-78; first compound 8 µM): 0.675
relative viability (SK-MES-1; first compound 0.08 µM): 0.436
relative viability (SK-MES-1; first compound 0.8 µM): 0.396
relative viability (SK-MES-1; first compound 2.53 µM): 0.361
relative viability (SK-MES-1; first compound 8 µM): 0.266
relative viability (HCC-44; first compound 0.08 µM): 0.981
relative viability (HCC-44; first compound 0.8 µM): 0.953
relative viability (HCC-44; first compound 2.53 µM): 0.986
relative viability (HCC-44; first compound 8 µM): 0.944
relative viability (HCC-827; first compound 0.08 µM): 0.336
relative viability (HCC-827; first compound 0.8 µM): 0.333
relative viability (HCC-827; first compound 2.53 µM): 0.38
relative viability (HCC-827; first compound 8 µM): 0.355
relative viability (SK-LU-1; first compound 0.08 µM): 0.617
relative viability (SK-LU-1; first compound 0.8 µM): 0.683
relative viability (SK-LU-1; first compound 2.53 µM): 0.709
relative viability (SK-LU-1; first compound 8 µM): 0.641
relative viability (NCI-H1437; first compound 0.08 µM): 0.541
relative viability (NCI-H1437; first compound 0.8 µM): 0.623
relative viability (NCI-H1437; first compound 2.53 µM): 0.568
relative viability (NCI-H1437; first compound 8 µM): 0.41
relative viability (NCI-H727; first compound 0.08 µM): 1.02
relative viability (NCI-H727; first compound 0.8 µM): 0.96
relative viability (NCI-H727; first compound 2.53 µM): 1.14
relative viability (NCI-H727; first compound 8 µM): 0.916
